Laboratory results reported in paper PMC7948648 (The Journal of Biological Chemistry, 2021).

What was measured:
PARP1 = tested on: T1, PARP1; design: method as in PMID 28001384; conditions: selectivity PARP1 over TNKS1; cited from earlier work
T1 construct: To assess if these observations extend to endogenous cellular settings; endogenous in cells; host or cells: NCI-H1048 cell lysate

TNKS1 = assay: Biotin probe competition pulldown in NCI-H1048 cell lysate, Western blot for TNKS1; conditions: talazoparib versus olaparib, 30 min pretreatment, biotin probes
Method: Proteins bound to streptavidin were released and subjected to Western blot analysis for either PARP1 (top) or TNKS1 (bottom).
Lysate was then spun at 1500 rpm for 3 min, and the soluble fraction was transferred to a new tube on ice.
Conjugated beads were washed three times with wash buffer (50 mM Hepes [Fisher Scientific AAJ60712AK], 150 mM NaCl [Invitrogen, AM9759], and 1% nonyl phenoxypolyethoxylethanol [Fisher Scientific NC9168253]) rotating for 3 min. All PARP inhibitor pulldowns were from 1 mg/ml of protein lysate.

[1] = clinical dose of 1 mg once a day; cited from earlier work
[2] = molecular target: the molecule itself; assay: crystal structure; TNKS1 ART domain, apo and with talazoparib, olaparib, niraparib or veliparib; sitting-drop vapor diffusion at 4 °C; several crystal forms with multiple molecules in the asymmetric unit

Question: With CN(C)CC(=O)Nc1ccc2[nH]c(=O)c3ccccc3c2c1 [PJ34] as the molecule, how does the “fold lower IC50 for PARP1 than for TNKS1” value (PARP1) read?
Answer: over 25 fold

Question: With Cn1ncnc1[C@H]1c2n[nH]c(=O)c3cc(F)cc(c23)N[C@@H]1c1ccc(F)cc1 [Talazoparib, talazoparib] as the molecule, how does the “greater ability to prevent binding to TNKS1” value (TNKS1) read?
Answer: approximately 1000 fold

Question: What about the free plasma concentration [1] of the same molecule?
Answer: ~17 nM

B1: tankyrase1 (TNKS1) ART domain (residues 1104-1314) (domain or fragment, UniProt O95271 1104-1314, looked up)
chain: QGTILLDLAPEDKEYQSVEEEMQSTIREHRDGGNAGGIFNRYNVIRIQKVVNKKLRERFCHRQKEVSEENHNHHNERMLFHGSPFINAIIHKGFDERHAYIGGMFGAGIYFAENSSKSNQYVYGIGGGTGCPTHKDRSCYICHRQMLFCRVTLGKSFLQFSTMKMAHAPPGHHSVIGRPSVNGLAYAEYVIYRGEQAYPEYLITYQIMKPE
notes: tankyrase1 (TNKS1, PARP5a), ART domain, residues 1104-1314; also called PARP5a; not shown: His6, N-terminal, cleaved
Question: Does B1 bind [2]?
Answer: binds
